In assay [1] the target is T1, baculovirus-expressed ALK (Homo sapiens, UniProt Q9UM73).
T1 construct: host or cells: baculovirus expression system
Put plainly: ALK Kinase Assay (ELISA-type, time-resolved fluorescence). The class given is biochemical. Particulars: ALK kinase inhibition, 1 μM ATP; read-out: ALK Activity. The method, boiled down:
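Substrate coating: phospholipase C-γ, 10 μg/mL in TBS. Kinase step: 30 ng/ml ALK, 15 min, 37° C. Detection and analysis: Eu-N1 PT66 antibody, with IC50 fitted as a sigmoidal variable-slope dose-response curve.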

Assay [2] concerns the target T2, c-Met (cytoplasmic domain) (Homo sapiens, UniProt P08581).
T2 construct: 10 ng/mL c-Met (cytoplasmic domain, Invitrogen Corporation #PV3143); purchased Invitrogen Corporation PV3143
The experiment in a line: c-Met Kinase Assay (same methods as for ALK, with modifications). Type of assay: biochemical. Particulars: c-Met kinase inhibition, 1 μM ATP; read-out: cMet Activity. The method, boiled down: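 Wells were coated with 10 μg/mL phospholipase C-γ substrate in TBS, and reactions were started with 10 ng/mL c-Met cytoplasmic domain and run at 37° C for 15 minutes. Phosphorylated product was detected with Eu-N1-labeled PT66 antibody. IC50 values came from sigmoidal variable-slope fits of percent inhibition versus log compound concentration.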

Among the data in patent publication US8148391B2 (Cephalon, Inc., priority 2006, dated 2012) are IC50 values, retold here.

The structures appear in SMILES notation.

T1 sequence (Q9UM73 19-1620): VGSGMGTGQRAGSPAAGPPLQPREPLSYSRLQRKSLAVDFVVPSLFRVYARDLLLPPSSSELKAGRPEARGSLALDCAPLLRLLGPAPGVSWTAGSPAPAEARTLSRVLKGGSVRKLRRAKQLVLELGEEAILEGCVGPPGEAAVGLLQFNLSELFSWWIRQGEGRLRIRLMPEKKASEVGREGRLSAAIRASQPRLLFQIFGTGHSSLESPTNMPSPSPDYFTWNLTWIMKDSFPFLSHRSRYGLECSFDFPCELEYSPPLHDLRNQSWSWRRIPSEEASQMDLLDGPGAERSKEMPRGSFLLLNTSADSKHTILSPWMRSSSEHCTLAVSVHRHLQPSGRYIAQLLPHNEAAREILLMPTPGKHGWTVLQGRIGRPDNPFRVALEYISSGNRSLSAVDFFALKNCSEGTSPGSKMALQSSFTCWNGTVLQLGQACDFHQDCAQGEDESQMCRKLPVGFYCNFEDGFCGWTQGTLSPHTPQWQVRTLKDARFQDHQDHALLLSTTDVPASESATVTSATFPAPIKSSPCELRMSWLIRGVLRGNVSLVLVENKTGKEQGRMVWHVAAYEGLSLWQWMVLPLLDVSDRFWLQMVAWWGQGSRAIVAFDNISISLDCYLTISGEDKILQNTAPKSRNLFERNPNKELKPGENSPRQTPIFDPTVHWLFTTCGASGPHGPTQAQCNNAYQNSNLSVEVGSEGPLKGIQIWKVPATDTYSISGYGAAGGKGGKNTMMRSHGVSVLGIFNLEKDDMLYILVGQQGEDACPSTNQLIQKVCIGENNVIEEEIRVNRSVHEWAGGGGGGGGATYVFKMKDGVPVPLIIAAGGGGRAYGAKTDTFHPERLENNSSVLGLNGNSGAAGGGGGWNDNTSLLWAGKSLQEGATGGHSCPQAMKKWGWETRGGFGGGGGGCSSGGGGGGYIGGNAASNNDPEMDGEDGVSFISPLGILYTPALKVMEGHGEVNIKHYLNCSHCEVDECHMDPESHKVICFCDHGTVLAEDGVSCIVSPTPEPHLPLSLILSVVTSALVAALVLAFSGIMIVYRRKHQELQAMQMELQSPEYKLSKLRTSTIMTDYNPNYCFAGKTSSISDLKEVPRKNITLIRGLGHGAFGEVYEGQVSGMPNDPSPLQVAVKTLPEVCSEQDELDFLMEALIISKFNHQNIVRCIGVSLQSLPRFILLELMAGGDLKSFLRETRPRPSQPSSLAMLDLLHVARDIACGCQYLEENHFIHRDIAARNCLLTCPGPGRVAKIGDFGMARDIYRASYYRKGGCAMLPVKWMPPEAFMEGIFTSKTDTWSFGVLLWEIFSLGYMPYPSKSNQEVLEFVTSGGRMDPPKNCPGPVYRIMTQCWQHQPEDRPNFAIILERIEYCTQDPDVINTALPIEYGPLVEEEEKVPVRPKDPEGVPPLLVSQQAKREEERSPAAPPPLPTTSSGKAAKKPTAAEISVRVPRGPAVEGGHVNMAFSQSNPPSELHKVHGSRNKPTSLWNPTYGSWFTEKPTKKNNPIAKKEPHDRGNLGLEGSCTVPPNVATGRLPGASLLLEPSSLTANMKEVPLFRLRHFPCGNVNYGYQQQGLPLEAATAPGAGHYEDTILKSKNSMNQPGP
T2 sequence (P08581 956-1390 limits assumed): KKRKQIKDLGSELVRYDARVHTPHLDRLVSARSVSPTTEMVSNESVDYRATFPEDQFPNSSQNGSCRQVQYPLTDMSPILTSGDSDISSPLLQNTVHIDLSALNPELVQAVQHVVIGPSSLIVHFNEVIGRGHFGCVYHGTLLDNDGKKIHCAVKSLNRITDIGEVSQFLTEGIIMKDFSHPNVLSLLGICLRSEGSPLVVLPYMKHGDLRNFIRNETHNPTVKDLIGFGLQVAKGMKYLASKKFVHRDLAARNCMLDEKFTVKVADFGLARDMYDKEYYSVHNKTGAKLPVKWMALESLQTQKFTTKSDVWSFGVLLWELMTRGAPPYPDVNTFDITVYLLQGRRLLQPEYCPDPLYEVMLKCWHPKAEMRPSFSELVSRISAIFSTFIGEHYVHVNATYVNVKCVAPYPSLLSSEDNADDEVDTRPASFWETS

For the compound `CCN1C(=O)C(NC(=O)CN(C)C)CCc2ccc(Nc3ncc(Cl)c(Nc4c(F)cccc4C(=O)NC)n3)cc21` (stereo not shown) [Example 1496, 2-{5-Chloro-2-[3-(2-dimethylamino-acetylamino)-1-ethyl-2-oxo-2,3,4,5-tetrahydro-1H-benzo[b]azepin-8-ylamino]-pyrimidin-4-ylamino}-3-fluoro-N-methyl-benzamide], the figures for the IC50 in assay [1] and in assay [2] were 0.1 to 1 µM and less than 0.1 µM, respectively.
`C#CCNC(=O)c1cccc(F)c1Nc1nc(Nc2ccc3c(c2)N(CC)C(=O)C(NC(=O)CN(C)C)CC3)ncc1Cl` (stereo not shown) [Example 1497, 2-{5-Chloro-2-[3-(2-dimethylamino-acetylamino)-1-ethyl-2-oxo-2,3,4,5-tetrahydro-1H-benzo[b]azepin-8-ylamino]-pyrimidin-4-ylamino}-3-fluoro-N-prop-2-ynyl-benzamide]: the IC50 in assay [1] is 0.1 to 1 µM; in assay [2], less than 0.1 µM.
On the same counts, the results for `CCN1C(=O)C(NC(=O)COC)CCc2ccc(Nc3ncc(Cl)c(Nc4c(F)cccc4C(=O)NC)n3)cc21` (stereo not shown) [Example 1498, 2-{5-Chloro-2-[1-ethyl-3-(2-methoxy-acetylamino)-2-oxo-2,3,4,5-tetrahydro-1H-benzo[b]azepin-8-ylamino]-pyrimidin-4-ylamino}-3-fluoro-N-methyl-benzamide] are 0.1 to 1 µM and less than 0.1 µM.
Consider `C#CCNC(=O)c1cccc(F)c1Nc1nc(Nc2ccc3c(c2)N(CC)C(=O)C(NC(=O)COC)CC3)ncc1Cl` (stereo not shown) [Example 1499, 2-{5-Chloro-2-[1-ethyl-3-(2-methoxy-acetylamino)-2-oxo-2,3,4,5-tetrahydro-1H-benzo[b]azepin-8-ylamino]-pyrimidin-4-ylamino}-3-fluoro-N-prop-2-ynyl-benzamide], for which the IC50 in assay [1] is 0.1 to 1 µM; in assay [2], less than 0.1 µM.
For the compound `COCCN1CCc2ccc(Nc3ncc(Cl)c(N[C@H]4CCC[C@H]4NS(C)(=O)=O)n3)cc2CC1` [Example 1501, N-((1R,2S)-2-{5-Chloro-2-[3-(2-methoxy-ethyl)-2,3,4,5-tetrahydro-1H-benzo[d]azepin-7-ylamino]-pyrimidin-4-ylamino}-cyclopentyl)-methanesulfonamide], the IC50 in assay [1] lay in the range of 0.1 to 1 µM; in assay [2] it was 1 to 10 µM.
In the case of `CCN1CCc2ccc(Nc3ncc(Cl)c(N[C@H]4CCCC[C@@H]4C(N)=O)n3)cc2CC1` [Example 1502, (1S,2S)-2-[5-Chloro-2-(3-ethyl-2,3,4,5-tetrahydro-1H-enzo[d]azepin-7-ylamino)-pyrimidin-4-ylamino]-cyclohexanecarboxylic acid amide], the values for the IC50 in assay [1] and in assay [2] were 0.1 to 1 µM and more than 10 µM, respectively.
Regarding `COc1cc2c(cc1Nc1ncc(Cl)c(N[C@@H]3CCCC[C@H]3NS(C)(=O)=O)n1)CCOC(=O)N2C` [Example 1503, N-{(1R,2R)-2-[5-Chloro-2-(3-methoxy-5-methyl-6-oxo-5,6,8,9-tetrahydro-7-oxa-5-aza-benzocyclohepten-2-ylamino)-pyrimidin-4-ylamino]-cyclohexyl}-methanesulfonamide], the IC50 was less than 0.1 µM in assay [1] and more than 10 µM in assay [2].
Take `CNC(=O)c1ccccc1Nc1nc(Nc2cc3c(cc2OC)N(C)C(=O)OCC3)ncc1Cl` [Example 1505, 2-[5-Chloro-2-(3-methoxy-5-methyl-6-oxo-5,6,8,9-tetrahydro-7-oxa-5-aza-benzocyclohepten-2-ylamino)-pyrimidin-4-ylamino]-N-methyl-benzamide]: the figures for the IC50 in assay [1] and in assay [2] were less than 0.1 µM and 1 to 10 µM, respectively.
For the compound `COc1cc2c(cc1Nc1ncc(Cl)c(Nc3ccc(N4CCOCC4)cc3OC)n1)CCOC(=O)N2C` [Example 1506, 2-[5-Chloro-4-(2-methoxy-4-morpholin-4-yl-phenylamino)-pyrimidin-2-ylamino]-3-methoxy-5-methyl-8,9-dihydro-5H-7-oxa-5-aza-benzocyclohepten-6-one], the IC50 was less than 0.1 µM in assay [1] and more than 10 µM in assay [2].
On the same counts, the results for `CNC(=O)c1ccccc1Nc1nc(Nc2cc3c(cc2OC)N(C)C(=O)OCC3)ncc1Br` [Example 1507, 2-[5-Bromo-2-(3-methoxy-5-methyl-6-oxo-5,6,8,9-tetrahydro-7-oxa-5-aza-benzocyclohepten-2-ylamino)-pyrimidin-4-ylamino]-N-methyl-benzamide] are less than 0.1 µM and 0.1 to 1 µM.
With `COc1cc2c(cc1Nc1ncc(Cl)c(Nc3ccccc3OC)n1)CCOC(=O)N2C` [Example 1508, 2-[5-Chloro-4-(2-methoxy-phenylamino)-pyrimidin-2-ylamino]-3-methoxy-5-methyl-8,9-dihydro-5H-7-oxa-5-aza-benzocyclohepten-6-one], the IC50 in assay [1] was less than 0.1 µM; in assay [2], more than 10 µM.
`COc1cc2c(cc1Nc1ncc(Cl)c(N[C@@H]3[C@H](C(N)=O)[C@H]4C=C[C@@H]3C4)n1)CCOC(=O)N2C` [Example 1509, (1R,2R,3S,4S)-3-[5-Chloro-2-(3-methoxy-5-methyl-6-oxo-5,6,8,9-tetrahydro-7-oxa-5-aza-benzocyclohepten-2-ylamino)-pyrimidin-4-ylamino]-bicyclo[2.2.1]hept-5-ene-2-carboxylic acid amide]: the IC50 was less than 0.1 µM in assay [1] and more than 10 µM in assay [2].
For the compound `COc1cc2c(cc1Nc1ncc(Cl)c(Nc3cccc(OCC#N)c3)n1)CCOC(=O)N2C` [Example 1510, {3-[5-Chloro-2-(3-methoxy-5-methyl-6-oxo-5,6,8,9-tetrahydro-7-oxa-5-aza-benzocyclohepten-2-ylamino)-pyrimidin-4-ylamino]-phenoxy}-acetonitrile], the IC50 is less than 0.1 µM in assay [1] and more than 10 µM in assay [2].
As for `CNC(=O)c1ccccc1Nc1nc(Nc2cc3c(cc2OC)CCOC(=O)N3C)ncc1Cl` [Example 1511, 2-[5-Chloro-2-(2-methoxy-5-methyl-6-oxo-5,6,8,9-tetrahydro-7-oxa-5-aza-benzocyclohepten-3-ylamino)-pyrimidin-4-ylamino]-N-methyl-benzamide], the IC50 in assay [1] is less than 0.1 µM; in assay [2], 1 to 10 µM.
On the same counts, the results for `CNC(=O)c1ccccc1Nc1nc(Nc2cc3c(cc2OC)CCOC(=O)N3C)ncc1Br` [Example 1512, 2-[5-Bromo-2-(2-methoxy-5-methyl-6-oxo-5,6,8,9-tetrahydro-7-oxa-5-aza-benzocyclohepten-3-ylamino)-pyrimidin-4-ylamino]-N-methyl-benzamide] are less than 0.1 µM and 1 to 10 µM.
In the case of `CNC(=O)c1ccccc1Nc1nc(Nc2cc3c(cc2OC)N(C)C(=O)OCC3)ncc1C(F)(F)F` [Example 1513, 2-[2-(3-Methoxy-5-methyl-6-oxo-5,6,8,9-tetrahydro-7-oxa-5-aza-benzocyclohepten-2-ylamino)-5-trifluoromethyl-pyrimidin-4-ylamino]-N-methyl-benzamide], the IC50 was less than 0.1 µM in assay [1] and 0.1 to 1 µM in assay [2].
Consider `COc1cc2c(cc1Nc1ncc(C(F)(F)F)c(Nc3ccc(N4CCOCC4)cc3OC)n1)CCOC(=O)N2C` [Example 1514, 3-Methoxy-2-[4-(2-methoxy-4-morpholin-4-yl-phenylamino)-5-trifluoromethyl-pyrimidin-2-ylamino]-5-methyl-8,9-dihydro-5H-7-oxa-5-aza-benzocyclohepten-6-one], for which the figures for the IC50 in assay [1] and in assay [2] were less than 0.1 µM and more than 10 µM, respectively.
For the compound `COc1cc2c(cc1Nc1ncc(Cl)c(Nc3ccccc3OCC#N)n1)CCOC(=O)N2C` [Example 1516, {2-[5-Chloro-2-(3-methoxy-5-methyl-6-oxo-5,6,8,9-tetrahydro-7-oxa-5-aza-benzocyclohepten-2-ylamino)-pyrimidin-4-ylamino]-phenoxy}-acetonitrile], the values for the IC50 in assay [1] and in assay [2] were less than 0.1 µM and 1 to 10 µM, respectively.
Consider `CNC(=O)c1ccccc1Nc1nc(Nc2c(OC)ccc3c2CCOC(=O)N3C)ncc1Cl` [Example 1517, 2-[5-Chloro-2-(2-methoxy-5-methyl-6-oxo-5,6,8,9-tetrahydro-7-oxa-5-aza-benzocyclohepten-1-ylamino)-pyrimidin-4-ylamino]-N-methyl-benzamide], for which the IC50 was 1 to 10 µM in assay [1] and more than 10 µM in assay [2].
On the same counts, the results for `COc1cc2c(cc1Nc1ncc(C(F)(F)F)c(Nc3ccc(N4CCOCC4)cc3OC)n1)N(C)C(=O)OCC2` [Example 1518, 2-Methoxy-3-[4-(2-methoxy-4-morpholin-4-yl-phenylamino)-5-trifluoromethyl-pyrimidin-2-ylamino]-5-methyl-8,9-dihydro-5H-7-oxa-5-aza-benzocyclohepten-6-one] are 0.1 to 1 µM and 1 to 10 µM.
The matching figures for `CCN1C(=O)CCC(C)(C)c2ccc(Nc3ncc(Cl)c(Nc4c(F)cccc4OCC#N)n3)cc21` [Example 1520, {2-[5-Chloro-2-(1-ethyl-5,5-dimethyl-2-oxo-2,3,4,5-tetrahydro-1H-1-benzazepin-8-ylamino)-pyrimidin-4-ylamino]-3-fluoro-phenoxy}-acetonitrile]: less than 0.1 µM and less than 0.1 µM.
Turning to `COCCN1C(=O)CCC(C)(C)c2ccc(Nc3ncc(Cl)c(Nc4c(F)cccc4OCC#N)n3)cc21` [Example 1521, (2-{5-Chloro-2-[1-(2-methoxy-ethyl)-5,5-dimethyl-2-oxo-2,3,4,5-tetrahydro-1H-1-benzazepin-8-ylamino]-pyrimidin-4-ylamino}-3-fluoro-phenoxy)-acetonitrile], the IC50 in assay [1] and in assay [2] was less than 0.1 µM throughout.
Take `COc1cc2c(cc1Nc1ncc(Cl)c(Nc3ccccc3S(=O)(=O)N(C)C)n1)CCN(CCN1CCOCC1)CC2` [Example 1522, 2-{5-Chloro-2-[8-methoxy-3-(2-morpholin-4-yl-ethyl)-2,3,4,5-tetrahydro-1H-3-benzazepin-7-ylamino]-pyrimidin-4-ylamino}-N,N-dimethyl-benzenesulfonamide]: the figures for the IC50 in assay [1] and in assay [2] were less than 0.1 µM and 1 to 10 µM, respectively.
